Test results as given in PubChem BioAssay (NCI).
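Grown in 96-well plates, cells were treated for 48 hours with each compound at five concentrations. Insufficient inhibition: endpoint recorded as highest concentration tested. Abbreviation: GI50, concentration required for 50% inhibition of growth. TGI: total growth inhibition.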

Assays:
Assay in all cases: growth of human tumour cells (NCI), 48 h
[1] = system: RXF 393 renal
[2] = system: SK-MEL-28 melanoma
[3] = system: KM12 colon
[4] = system: LOX IMVI melanoma
[5] = system: SNB-19 CNS
[6] = system: EKVX NSCLC
[7] = system: M19-MEL melanoma
[8] = system: TK-10 renal
[9] = system: SNB-78 CNS
[10] = system: OVCAR-4 ovarian
[11] = system: NCI-H226 lung
[12] = system: MOLT-4 leukemia
[13] = system: DLD-1 colon
[14] = system: M14 melanoma
[15] = system: HCC-2998 colon
[16] = system: XF 498 CNS
[17] = system: SW-620 colon
[18] = system: HOP-62 NSCLC
[19] = system: NCI-H460 lung
[20] = system: LXFL 529 NSCLC
[21] = system: U251 CNS
[22] = system: CCRF-CEM leukemia
[23] = system: SK-OV-3 ovarian
[24] = system: SK-MEL-2 melanoma
[25] = system: UACC-257 melanoma
[26] = system: NCI-H522 lung
[27] = system: DMS 114 small cell lung
[28] = system: IGROV1 ovarian
[29] = system: SR leukemia
[30] = system: A549 NSCLC
[31] = system: UACC-62 melanoma
[32] = system: COLO 205 colon
[33] = system: CAKI-1 renal
[34] = system: HOP-92 NSCLC
[35] = system: SF-268 CNS
[36] = system: DMS 273 small cell lung
[37] = system: RPMI-8226 leukemia
[38] = system: HCT-15 colon
[39] = system: SNB-75 CNS
[40] = system: UO-31 renal
[41] = system: OVCAR-5 ovarian
[42] = system: NCI-H23 lung
[43] = system: OVCAR-8 ovarian
[44] = system: SK-MEL-5 melanoma
[45] = system: SF-539 CNS
[46] = system: SN12C renal
[47] = system: ACHN renal
[48] = system: KM20L2 colon
[49] = system: HL-60(TB) leukemia
[50] = system: K-562 leukemia
[51] = system: HCT-116 colon
[52] = system: SF-295 CNS
[53] = system: A498 renal
[54] = system: HT29 colon
[55] = system: OVCAR-3 ovarian
[56] = system: MALME-3M melanoma
[57] = system: HOP-18 NSCLC
[58] = system: 786-0 renal

SMILES: CN/N=C(\C(=O)Nc1ccc(C)c(C)c1)C(C(=O)OC)c1nc2ccc([N+](=O)[O-])cc2[nH]c1=O (centres undefined)
- TGI [1]: > 100 µM
- TGI [2]: > 100 µM
- TGI [3]: > 100 µM
- TGI [4]: > 100 µM
- TGI [5]: > 100 µM
- TGI [6]: > 100 µM
- TGI [7]: > 100 µM
- TGI [8]: > 100 µM
- TGI [9]: > 100 µM
- TGI [10]: > 100 µM
- TGI [11]: > 100 µM
- TGI [12]: > 100 µM
- TGI [13]: > 100 µM
- TGI [14]: > 100 µM
- TGI [15]: > 100 µM
- TGI [16]: > 100 µM
- TGI [17]: > 100 µM
- TGI [18]: > 100 µM
- TGI [19]: > 100 µM
- TGI [20]: > 100 µM
- TGI [21]: > 100 µM
- TGI [22]: > 100 µM
- TGI [23]: > 100 µM
- TGI [24]: > 100 µM
- TGI [25]: > 100 µM
- TGI [26]: 70.9 µM
- TGI [27]: > 100 µM
- TGI [28]: > 100 µM
- TGI [29]: > 100 µM
- TGI [30]: > 100 µM
- TGI [31]: > 100 µM
- TGI [32]: > 100 µM
- TGI [33]: > 100 µM
- TGI [34]: > 100 µM
- TGI [35]: > 100 µM
- TGI [36]: > 100 µM
- TGI [37]: > 100 µM
- TGI [38]: > 100 µM
- TGI [39]: > 100 µM
- TGI [40]: > 100 µM
- TGI [41]: > 100 µM
- TGI [42]: > 100 µM
- TGI [43]: > 100 µM
- TGI [44]: > 100 µM
- TGI [45]: > 100 µM
- TGI [46]: > 100 µM
- TGI [47]: > 100 µM
- TGI [48]: > 100 µM
- TGI [49]: > 100 µM
- TGI [50]: > 100 µM
- TGI [51]: > 100 µM
- TGI [52]: > 100 µM
- TGI [53]: > 100 µM
- TGI [54]: > 100 µM

SMILES: CCOC(=O)C1=C(C)N(C2OC(COC(=O)c3ccccc3)C(OC(=O)c3ccccc3)C2OC(=O)c2ccccc2)C(=S)NC1c1ccccc1 (centres undefined)
- TGI [2]: > 100 µM
- TGI [3]: > 100 µM
- TGI [4]: > 100 µM
- TGI [5]: > 100 µM
- TGI [6]: 62.2 µM
- TGI [7]: > 100 µM
- TGI [9]: > 100 µM
- TGI [55]: 71.9 µM
- TGI [10]: > 100 µM
- TGI [11]: > 100 µM
- TGI [12]: 80.6 µM
- TGI [13]: > 100 µM
- TGI [14]: 93.2 µM
- TGI [15]: > 100 µM
- TGI [17]: > 100 µM
- TGI [18]: > 100 µM
- TGI [19]: > 100 µM
- TGI [20]: > 100 µM
- TGI [21]: > 100 µM
- TGI [22]: > 100 µM
- TGI [23]: > 100 µM
- TGI [24]: > 100 µM
- TGI [25]: > 100 µM
- TGI [26]: 66.1 µM
- TGI [56]: 78.8 µM
- TGI [27]: 97.2 µM
- TGI [28]: > 100 µM
- TGI [29]: 73.2 µM
- TGI [30]: > 100 µM
- TGI [31]: > 100 µM
- TGI [32]: > 100 µM
- TGI [57]: > 100 µM
- TGI [33]: 79.4 µM
- TGI [35]: > 100 µM
- TGI [37]: 45.2 µM
- TGI [39]: > 100 µM
- TGI [40]: 99.4 µM
- TGI [41]: > 100 µM
- TGI [42]: > 100 µM
- TGI [43]: > 100 µM
- TGI [44]: 42.8 µM
- TGI [45]: > 100 µM
- TGI [46]: > 100 µM
- TGI [47]: > 100 µM
- TGI [48]: > 100 µM
- TGI [49]: 33.9 µM
- TGI [50]: 91.7 µM
- TGI [51]: > 100 µM
- TGI [52]: > 100 µM
- TGI [53]: > 100 µM
- TGI [54]: > 100 µM

SMILES: CC(=O)[C-](C(C)=O)c1ccccc1.CC(=O)[C-](C(C)=O)c1ccccc1.CC(=O)[C-](C(C)=O)c1ccccc1.[Cl-].[Zr+4]
- GI50 [1]: 28.1 µM
- TGI [1]: 98.3 µM
- GI50 [3]: > 100 µM
- TGI [3]: > 100 µM
- GI50 [4]: > 100 µM
- TGI [4]: > 100 µM
- GI50 [5]: 82.9 µM
- TGI [5]: > 100 µM
- GI50 [6]: > 100 µM
- TGI [6]: > 100 µM
- GI50 [8]: > 100 µM
- TGI [8]: > 100 µM
- GI50 [55]: > 100 µM
- TGI [55]: > 100 µM
- GI50 [10]: > 100 µM
- TGI [10]: > 100 µM
- GI50 [11]: > 100 µM
- TGI [11]: > 100 µM
- GI50 [12]: > 100 µM
- TGI [12]: > 100 µM
- GI50 [14]: > 100 µM
- TGI [14]: > 100 µM
- GI50 [17]: > 100 µM
- TGI [17]: > 100 µM
- GI50 [18]: > 100 µM
- TGI [18]: > 100 µM
- GI50 [19]: > 100 µM
- TGI [19]: > 100 µM
- GI50 [21]: 58 µM
- TGI [21]: > 100 µM
- GI50 [23]: > 100 µM
- TGI [23]: > 100 µM
- GI50 [24]: > 100 µM
- TGI [24]: > 100 µM
- GI50 [25]: > 100 µM
- TGI [25]: > 100 µM
- GI50 [26]: > 100 µM
- TGI [26]: > 100 µM
- GI50 [56]: > 100 µM
- TGI [56]: > 100 µM
- GI50 [28]: > 100 µM
- TGI [28]: > 100 µM
- GI50 [30]: > 100 µM
- TGI [30]: > 100 µM
- GI50 [31]: > 100 µM
- TGI [31]: > 100 µM
- GI50 [32]: > 100 µM
- TGI [32]: > 100 µM
- GI50 [58]: 38.7 µM
- TGI [58]: > 100 µM
- GI50 [33]: > 100 µM
- TGI [33]: > 100 µM
- GI50 [34]: 44.5 µM
- TGI [34]: > 100 µM
- GI50 [35]: 61.7 µM
- TGI [35]: > 100 µM
- GI50 [37]: > 100 µM
- TGI [37]: > 100 µM
- GI50 [38]: > 100 µM
- TGI [38]: > 100 µM
- GI50 [39]: 33 µM
- TGI [39]: 83.9 µM
- GI50 [40]: > 100 µM
- TGI [40]: > 100 µM
- GI50 [41]: > 100 µM
- TGI [41]: > 100 µM
- GI50 [42]: > 100 µM
- TGI [42]: > 100 µM
- GI50 [43]: 57.5 µM
- TGI [43]: > 100 µM
- GI50 [44]: > 100 µM
- TGI [44]: > 100 µM
- GI50 [45]: 86.7 µM
- TGI [45]: > 100 µM
- GI50 [46]: > 100 µM
- TGI [46]: > 100 µM
- GI50 [48]: > 100 µM
- TGI [48]: > 100 µM
- GI50 [49]: > 100 µM
- TGI [49]: > 100 µM
- GI50 [50]: > 100 µM
- TGI [50]: > 100 µM
- GI50 [51]: > 100 µM
- TGI [51]: > 100 µM
- GI50 [52]: > 100 µM
- TGI [52]: > 100 µM
- GI50 [53]: > 100 µM
- TGI [53]: > 100 µM
- GI50 [54]: > 100 µM
- TGI [54]: > 100 µM

SMILES: C/C(=N\NC(N)=S)c1ccc(C2CCCCC2)cc1
- TGI [1]: 27.6 µM
- TGI [2]: 33.7 µM
- TGI [3]: > 100 µM
- TGI [5]: > 100 µM
- TGI [6]: > 100 µM
- TGI [7]: > 100 µM
- TGI [8]: 80.3 µM
- TGI [9]: 91.1 µM
- TGI [55]: 30.5 µM
- TGI [10]: 38.4 µM
- TGI [12]: 35.7 µM
- TGI [14]: 22.7 µM
- TGI [15]: 42 µM
- TGI [18]: 73.6 µM
- TGI [21]: 39.9 µM
- TGI [23]: 75.9 µM
- TGI [24]: 32.8 µM
- TGI [56]: 37.6 µM
- TGI [27]: 29.9 µM
- TGI [28]: 62.1 µM
- TGI [29]: > 100 µM
- TGI [30]: > 100 µM
- TGI [31]: 32.2 µM
- TGI [32]: 26.1 µM
- TGI [58]: 31.7 µM
- TGI [57]: > 100 µM
- TGI [33]: 64.6 µM
- TGI [35]: > 100 µM
- TGI [37]: > 100 µM
- TGI [40]: 41.8 µM
- TGI [41]: 35.1 µM
- TGI [42]: 56.3 µM
- TGI [43]: 36.8 µM
- TGI [45]: 38 µM
- TGI [48]: 30.1 µM
- TGI [50]: 39.2 µM
- TGI [51]: 44.6 µM
- TGI [52]: 21 µM
- TGI [54]: 34.5 µM
